# Test results reported in patent US7105566B2, “Methods of treatment during vascular procedures” (Allergan, Inc., priority 2002, dated 2006).
# Several values for one entry are separate records, joined by “and”; a condition that tells them apart may be missing. Equal values may be shown once. Entries after “also recorded” stand apart in the source; their conditions may differ.
# Assays:
# [1] = Serum concentration of Compound 1 in male cynomolgus monkeys; type: in vivo, cynomolgus monkey; settings: given orally
# Procedure: (§1) Five male cynomologus monkeys were employed in the study. Three of the five monkeys were treated with Compound 1 at a daily dosage of 1.25 mg/kg (orally) for a period of 25 days. Compound 1 is an RAR antagonist or inhibitor. The remaining two were similarly treated with a vehicle to serve as control. Serum samples were collected on days 1, 8, 15, 22 and 25 for triglyceride determination. Serum samples from days 8, 15, 22 and 25 were also assayed for the concentration of Compound 1.
# [2] = test system: female ZDF rats; experiment: Serum triglycerides and cholesterol in female ZDF rats on a diabetogenic high fat diet, Compound 1 at 0.03-0.3 mg/kg; type: in vivo, rat; settings: for Cholesterol day 8, 0 hr, Mean / Triglycerides day 8, 0 hr, Mean / Cholesterol day 0, 4 hr, Mean / Triglycerides day 0, 4 hr, Mean / Cholesterol day 7, 4 hr, Mean / Triglycerides day 7, 4 hr, Mean / Cholesterol day 3, 4 hr, Mean / Triglycerides day 3, 4 hr, Mean: group mean of 4 rats; for Cholesterol day 8, 0 hr, Mean / Triglycerides day 8, 0 hr, Mean / Cholesterol day 8, 0 hr / Triglycerides day 8, 0 hr: 24 hours after the last dosing; for Cholesterol day 0, 4 hr, Mean / Triglycerides day 0, 4 hr, Mean / Cholesterol day 0, 4 hr / Triglycerides day 0, 4 hr: day before dosing (baseline); for Cholesterol day 7, 4 hr, Mean / Triglycerides day 7, 4 hr, Mean / Cholesterol day 7, 4 hr / Triglycerides day 7, 4 hr: seventh day of dosing; for Cholesterol day 3, 4 hr, Mean / Triglycerides day 3, 4 hr, Mean / Cholesterol day 3, 4 hr / Triglycerides day 3, 4 hr: third day of dosing; for Cholesterol day 8, 0 hr / Triglycerides day 8, 0 hr / Cholesterol day 0, 4 hr / Triglycerides day 0, 4 hr / Cholesterol day 7, 4 hr / Triglycerides day 7, 4 hr / Cholesterol day 3, 4 hr / Triglycerides day 3, 4 hr: individual animals
# Procedure: ZDF rats, which are hyperlipidemic and diabetic, were used as a model to test the effect of RAR antagonists/inhibitors on serum lipids. Female ZDF rats (10–11 weeks old) were fed a GMI 13004 diet, a diabetogenic, high fat diet, for 5–6 weeks. Compound 1 was dissolved in vehicle (2% DMSO, 98% corn oil). Compound 1 was administered at a dosage of 0.03 mg/kg, 0.1 mg/kg, and 0.3 mg/kg body weight. Dosings were performed at approximately 8 a.m. Serum was collected at approximately 12 p.m. on the day before dosing (Day 0, 4 hour); the third day of dosing (Day 3, 4 hour); the seventh day of dosing (Day 7, 4 hour); and 24 hours after the last dosing (Day 8, 0 hour). The levels of triglycerides and cholesterol in the serum samples were measured.
# [3] = test system: female ZDF rats; experiment: Serum triglycerides and cholesterol in female ZDF rats, Compound 1 and Compound 2 at 10 mg/kg; type: in vivo, rat; settings: 10 mg/kg oral
# Procedure: A similar experiment to that described above was performed. Briefly, female ZDF rats (12 weeks old) were fed either a PM 5008 diet or a GMI 13004 diet. Control vehicle consisted of 2% DMSO and 98% corn oil. Compound 1 and Compound 2 were administered at a dosage of 10 mg/kg body weight. Dosings were administered at approximately 8 a.m. Serum was collected on the first day of dosing at approximately 8 a.m. (Day 1, 0 hour) and 2 p.m. (Day 1, 6 hour); the fourth day of dosing at approximately 8 a.m. (Day 4, 0 hour); and the last day of dosing at approximately 8 a.m. (Day 7, 0 hour) and 2 p.m. (Day 7, 6 hour). The levels of triglycerides and cholesterol in the serum samples were measured. The results are shown in Table 2 and are illustrated graphically in FIGS. 3A and 3B.
# [4] = Stability to normal light; type: physicochemical
# [5] = test system: male SJL mice; experiment: Serum triglycerides (STG) in male SJL mice; type: in vivo, mouse; settings: 20 mg/kg oral daily
# Procedure: Male SJL mice were dosed orally with vehicle, Compound 1 (an RAR pan-antagonist), or Compound 3 (an RARE antagonist) for 4 consecutive days. The structure and synthesis of Compound 1 is described in Example I. The structure of Compound 3 is shown below, and the compound was synthesized using routine methods:
# The test compounds were dissolved in corn oil and given at a dosage/volume of 20 mg/5 ml/kg.
# On day 3, serum triglycerides (STG) were determined from samples collected at 7 a.m.
# On day 4, animals were fasted after dosing, starting at 8 a.m. Following 6 hours of fasting, blood samples were collected prior to intravenous injection of WR-1339 at 100 mg/5 ml/kg. Additional serum samples were collected at 1 and 2 hours after WR-1339 injection. WR-1339 is a detergent that inactivates lipoprotein lipase and thus prevents the removal of triglycerides from circulation. By measuring the increase of STG after WR-1339 administration in fasted animals, the hepatic triglyceride (HTG) output during fasting can be estimated.
# Due to the lack of effect of Compound 3 at 20 mg/kg, the dose was increased to 100 mg/kg in the same set of mice. STG was determined on day 3 prior to dosing (Day 3, 8 a.m.). […] To ensure that Compound 3 would be bioavailable, Compound 3 was dissolved in DMSO and given by intraperitoneal injections, once at 4 p.m. on day 3 and once at 8 a.m. on day 4, at a dosage of 100 mg/kg/injection. Administration of WR-1339 and blood collections on day 4 were similarly conducted as described above.
# [6] = test system: male cynomologus monkeys; experiment: Clinical observation, body weight and food consumption of treated monkeys; type: in vivo, cynomolgus monkey; settings: daily 1.25 mg/kg orally for 25 days
# Procedure: as §1
# [7] = GMI 13004 diet, group mean of 5 rats, first day of dosing, 2 p.m.
# [8] = GMI 13004 diet, group mean of 5 rats, first day of dosing, about 8 a.m. (baseline)
# [9] = GMI 13004 diet, group mean of 5 rats, fourth day of dosing, 8 a.m.
# [10] = GMI 13004 diet, group mean of 5 rats, last day of dosing, 2 p.m.
# [11] = GMI 13004 diet, group mean of 5 rats, last day of dosing, 8 a.m.
# [12] = GMI 13004 diet, individual animals, first day of dosing, 2 p.m.
# [13] = GMI 13004 diet, individual animals, first day of dosing, about 8 a.m. (baseline)
# [14] = GMI 13004 diet, individual animals, fourth day of dosing, 8 a.m.
# [15] = GMI 13004 diet, individual animals, last day of dosing, 2 p.m.
# [16] = GMI 13004 diet, individual animals, last day of dosing, 8 a.m.
smiles,measurement,setting,value
"CCc1ccc(C2=CC(C)(C)Sc3ccc(C#Cc4ccc(C(=O)O)cc4)cc32)cc1 [Compound 1, 4-[[4-(4-ethylphenyl)-2,2-dimethyl-(2H)-thiochromen-6-yl]-ethynyl]-benzoic acid]",oral absorption,[1],well absorbed
same,serum triglyceride levels as % of pre-treatment triglyceride levels,[2]; 0.03 mg/kg oral,about 59%
same,"Cholesterol day 8, 0 hr, Mean",[2]; 0.03 mg/kg oral,110
same,"Triglycerides day 8, 0 hr, Mean",[2]; 0.03 mg/kg oral,781
same,"Cholesterol day 0, 4 hr, Mean",[2]; 0.03 mg/kg oral,123
same,"Triglycerides day 0, 4 hr, Mean",[2]; 0.03 mg/kg oral,1334
same,"Cholesterol day 7, 4 hr, Mean",[2]; 0.03 mg/kg oral,109
same,"Triglycerides day 7, 4 hr, Mean",[2]; 0.03 mg/kg oral,749
same,"Cholesterol day 3, 4 hr, Mean",[2]; 0.03 mg/kg oral,105
same,"Triglycerides day 3, 4 hr, Mean",[2]; 0.03 mg/kg oral,794
same,"Cholesterol day 8, 0 hr",[2]; 0.03 mg/kg oral,108 (2×) and 93 and 129
same,"Triglycerides day 8, 0 hr",[2]; 0.03 mg/kg oral,846 and 531 and 1230 and 516
same,"Cholesterol day 0, 4 hr",[2]; 0.03 mg/kg oral,114 and 129 (2×) and 120
same,"Triglycerides day 0, 4 hr",[2]; 0.03 mg/kg oral,1200 and 1245 and 1944 and 945
same,"Cholesterol day 7, 4 hr",[2]; 0.03 mg/kg oral,111 and 105 and 96 and 123
same,"Triglycerides day 7, 4 hr",[2]; 0.03 mg/kg oral,771 and 468 and 855 and 903
same,"Cholesterol day 3, 4 hr",[2]; 0.03 mg/kg oral,93 and 96 and 129 and 102
same,"Triglycerides day 3, 4 hr",[2]; 0.03 mg/kg oral,663 and 651 and 1197 and 666
same,serum triglyceride levels as % of pre-treatment triglyceride levels,[2]; 0.1 mg/kg oral,~40%
same,"Cholesterol day 8, 0 hr, Mean",[2]; 0.1 mg/kg oral,105
same,"Triglycerides day 8, 0 hr, Mean",[2]; 0.1 mg/kg oral,479
same,"Cholesterol day 0, 4 hr, Mean",[2]; 0.1 mg/kg oral,125
same,"Triglycerides day 0, 4 hr, Mean",[2]; 0.1 mg/kg oral,1208
same,"Cholesterol day 7, 4 hr, Mean",[2]; 0.1 mg/kg oral,107
same,"Triglycerides day 7, 4 hr, Mean",[2]; 0.1 mg/kg oral,505
same,"Cholesterol day 3, 4 hr, Mean",[2]; 0.1 mg/kg oral,106
same,"Triglycerides day 3, 4 hr, Mean",[2]; 0.1 mg/kg oral,497
same,"Cholesterol day 8, 0 hr",[2]; 0.1 mg/kg oral,102 (2×) and 105 and 111
same,"Triglycerides day 8, 0 hr",[2]; 0.1 mg/kg oral,390 and 339 and 486 and 699
same,"Cholesterol day 0, 4 hr",[2]; 0.1 mg/kg oral,123 (2×) and 129 and 126
same,"Triglycerides day 0, 4 hr",[2]; 0.1 mg/kg oral,1284 and 993 and 1197 and 1356
same,"Cholesterol day 7, 4 hr",[2]; 0.1 mg/kg oral,114 and 90 and 111 (2×)
same,"Triglycerides day 7, 4 hr",[2]; 0.1 mg/kg oral,429 and 384 and 618 and 588
same,"Cholesterol day 3, 4 hr",[2]; 0.1 mg/kg oral,129 and 84 and 96 and 114
same,"Triglycerides day 3, 4 hr",[2]; 0.1 mg/kg oral,402 and 360 and 681 and 546
same,serum triglyceride levels as % of pre-treatment triglyceride levels,[2]; 0.3 mg/kg oral,~14%
same,"Cholesterol day 8, 0 hr, Mean",[2]; 0.3 mg/kg oral,115
same,"Triglycerides day 8, 0 hr, Mean",[2]; 0.3 mg/kg oral,215
same,"Cholesterol day 0, 4 hr, Mean",[2]; 0.3 mg/kg oral,131
same,"Triglycerides day 0, 4 hr, Mean",[2]; 0.3 mg/kg oral,1550
same,"Cholesterol day 7, 4 hr, Mean",[2]; 0.3 mg/kg oral,119
same,"Triglycerides day 7, 4 hr, Mean",[2]; 0.3 mg/kg oral,215
same,"Cholesterol day 3, 4 hr, Mean",[2]; 0.3 mg/kg oral,101
same,"Triglycerides day 3, 4 hr, Mean",[2]; 0.3 mg/kg oral,282
same,"Cholesterol day 8, 0 hr",[2]; 0.3 mg/kg oral,102 and 120 and 123 and 114
same,"Triglycerides day 8, 0 hr",[2]; 0.3 mg/kg oral,222 and 180 and 195 and 261
same,"Cholesterol day 0, 4 hr",[2]; 0.3 mg/kg oral,105 and 141 and 156 and 123
same,"Triglycerides day 0, 4 hr",[2]; 0.3 mg/kg oral,882 and 1725 and 2244 and 1350
same,"Cholesterol day 7, 4 hr",[2]; 0.3 mg/kg oral,99 and 126 and 132 and 120
same,"Triglycerides day 7, 4 hr",[2]; 0.3 mg/kg oral,195 and 222 and 267 and 174
same,"Cholesterol day 3, 4 hr",[2]; 0.3 mg/kg oral,93 and 96 and 108 (2×)
same,"Triglycerides day 3, 4 hr",[2]; 0.3 mg/kg oral,282 and 234 and 297 and 315
same,effect on serum cholesterol levels,[2]; 0.03-0.3 mg/kg oral,"effective at lowering serum cholesterol levels, although the effect was more modest than observed for serum triglycerides"
same,effect on lowering serum cholesterol,[3],more modest effect
same,serum triglycerides as % of pre-treatment levels,[3],about 7%
same,"Cholesterol day 1, 6 hr, Mean",[3]; [7],107
same,"Triglycerides day 1, 6 hr, Mean",[3]; [7],1183
same,"Cholesterol day 1, 0 hr, Mean",[3]; [8],131
same,"Triglycerides day 1, 0 hr, Mean",[3]; [8],1410
same,"Cholesterol day 4, 0 hr, Mean",[3]; [9],82
same,"Triglycerides day 4, 0 hr, Mean",[3]; [9],138
same,"Cholesterol day 7, 6 hr, Mean",[3]; [10],90
same,"Triglycerides day 7, 6 hr, Mean",[3]; [10],86
same,"Cholesterol day 7, 0 hr, Mean",[3]; [11],89
same,"Triglycerides day 7, 0 hr, Mean",[3]; [11],72
same,"Cholesterol day 1, 6 hr",[3]; [12],132 and 90 (2×) and 126 and 96
same,"Triglycerides day 1, 6 hr",[3]; [12],1248 and 750 and 1674 and 978 and 1266
same,"Cholesterol day 1, 0 hr",[3]; [13],162 and 108 (2×) and 156 and 120
same,"Triglycerides day 1, 0 hr",[3]; [13],1770 and 1182 and 1500 and 1278 and 1320
same,"Cholesterol day 4, 0 hr",[3]; [14],78 and 90 (2×) and 84 and 66
same,"Triglycerides day 4, 0 hr",[3]; [14],174 and 132 and 114 and 102 and 168
same,"Cholesterol day 7, 6 hr",[3]; [15],102 and 72 and 132 and 48 and 96
same,"Triglycerides day 7, 6 hr",[3]; [15],96 and 66 and 60 (2×) and 150
same,"Cholesterol day 7, 0 hr",[3]; [16],96 (2×) and 84 and 66 and 102
same,"Triglycerides day 7, 0 hr",[3]; [16],78 and 96 and 60 (2×) and 66
same,stability to normal light,[4],relatively stable to normal light
same,"non-fasting STG (Day 3, 8 a.m.)",[5],appeared to lower
same,"fasting STG (Day 4, 2 p.m.)",[5]; after 6 hours of fasting,but not fasting STG
same,body weight or rate of food consumption,[6],no change
same,general health / clinical signs,[6]; 1.25 mg/kg,appeared healthy; also recorded: without any noticeable abnormal clinical signs
